Four compounds from patent US10336762B2 (priority 2017, dated 2019) can be followed below.

The test system of experiment [1] is TNFα. Briefly: cells. The class given is cell-based, human. The note with it: Homo sapiens, Monocyte, LPS-stimulated human monocytes, TNFα by TR-FRET; read-out: EC50 TNF.
The target of experiment [2] is IRAK4 enzyme (Homo sapiens (Human), UniProt Q9NWZ3). Briefly: biochemical. The class given is biochemical. The note with it: IRAK4 enzyme, TR-FRET, 500 μM ATP.
Sequence of IRAK4 enzyme (Q9NWZ3 whole entry): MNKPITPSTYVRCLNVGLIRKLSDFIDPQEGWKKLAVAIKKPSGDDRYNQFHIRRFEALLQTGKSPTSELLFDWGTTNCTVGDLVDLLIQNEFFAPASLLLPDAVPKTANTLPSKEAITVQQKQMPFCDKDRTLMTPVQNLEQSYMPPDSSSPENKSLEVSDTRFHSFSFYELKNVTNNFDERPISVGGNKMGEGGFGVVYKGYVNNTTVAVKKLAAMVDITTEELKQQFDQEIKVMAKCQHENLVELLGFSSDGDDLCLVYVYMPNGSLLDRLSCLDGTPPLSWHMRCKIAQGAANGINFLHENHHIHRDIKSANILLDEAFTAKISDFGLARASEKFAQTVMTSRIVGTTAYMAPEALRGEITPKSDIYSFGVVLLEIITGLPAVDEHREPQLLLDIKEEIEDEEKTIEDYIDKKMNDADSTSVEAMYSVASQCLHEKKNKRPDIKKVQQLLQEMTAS

For `CC(C)(O)[C@H](F)CNC(=O)c1cnc(-c2ccc3cc(C#N)cnn23)cc1Nc1cnc(-c2cn[nH]c2)cn1` [Example 972, (R)-4-((5-(1H-pyrazol-4-yl)pyrazin-2-yl)amino)-6-(3-cyanopyrrolo[1,2-b]pyridazin-7-yl)-N-(2-fluoro-3-hydroxy-3-methylbutyl)nicotinamide], the EC50 in experiment [1] came out at 12 nM. Besides, in experiment [2], the IC50 was under 1 nM.

As to `CC(C)(O)[C@H](F)CNC(=O)c1cnc(-c2ccc3cc(C#N)cnn23)cc1Nc1ccc2nncn2c1` [Example 973, (R)-4-([1,2,4]triazolo[4,3-a]pyridin-6-ylamino)-6-(3-cyanopyrrolo[1,2-b]pyridazin-7-yl)-N-(2-fluoro-3-hydroxy-3-methylbutyl)nicotinamide], the EC50 in experiment [1] amounted to 1910 nM. The compound further displayed an IC50 in experiment [2] of 2 nM.

On to `CC(C)(O)[C@H](F)CNC(=O)c1cnc(-c2ccc3cc(C#N)cnn23)cc1Nc1ccc2nccn2c1` [Example 974, (R)-6-(3-cyanopyrrolo[1,2-b]pyridazin-7-yl)-N-(2-fluoro-3-hydroxy-3-methylbutyl)-4-(imidazo[1,2-a]pyridin-6-ylamino)nicotinamide], for which the EC50 in experiment [1] was found to be 112 nM. This compound displayed an IC50 in experiment [2] of 1 nM.

Regarding `CC(C)(O)[C@H](F)CNC(=O)c1cnc(-c2ccc3cc(C#N)cnn23)cc1Nc1ccn2nccc2c1` [Example 975, (R)-6-(3-cyanopyrrolo[1,2-b]pyridazin-7-yl)-N-(2-fluoro-3-hydroxy-3-methyl-butyl)-4-(pyrazolo[1,5-a]pyridin-5-ylamino) nicotinamide], the EC50 in experiment [1] turned out to be 67 nM. The IC50 in experiment [2] is under 1 nM.
